Data as given in patent publication US20110269788A1, “SPIRO-OXINDOLE-DERIVATIVES AS SODIUM CHANNEL BLOCKERS” (Xenon Pharmaceuticals Inc., priority 2008, published 2011).

Assays:
CYP2C9 = CYP2C9 (Homo sapiens, UniProt P11712); test: in vitro
Excerpt: (§1) CYP450 (CYP) is a designation for a superfamily of enzymes. Each family consists of one or more subfamilies and each subfamily contains one or more specific CYP isoforms. The Cytochrome P450 (CYP450) Inhibition Assay is a fluorescence-based assay using a cytochrome CYP isozyme for screening of compounds of the invention to determine the level of CYP inhibition by a specific compound. The assay is based on the CYP inhibition kit described by Vivid CYP450 Screening Kit Protocol, 2005, Invitrogen Corporation (Invitrogen Corporation, 1600 Faraday Avenue, Carlsbad, Calif. 92008, USA).
(§2) This assay is designed to assess compounds by quantifying the inhibition of the predominant human CYP isozymes involved in hepatic drug metabolism. […] The standard method for evaluating specific CYP isozyme inhibition is to determine the conversion rate of a probe substrate into its metabolite, in the presence and absence of the potential inhibitor. Quantification of the metabolite is achieved by HPLC or by using a probe substrate (Table 3) that is metabolized into a fluorescent product (fluorescent assay).
(§3) This assay can be used for single concentration screening or for IC50 determination. In a single concentration screening assay, the final assay concentration of the test compound is 10 μM. In an IC50 determination assay, IC50 may be determined using a 3, 6, or 12 point curve in triplicate with a chosen starting concentration diluted serially.
(§4) In the Preparation Stage, the test compounds, controls (acetonitrile (ACN) or Dimethyl sulfoxide (DMSO) and No Baculosomes), and known inhibitors (Table 4) were diluted to 10% ACN or DMSO in water at appropriate concentrations.

CYP2D6 = CYP2D6 (Homo sapiens, UniProt P10635); test: in vitro
Excerpt: as §1, §2, §3, §4

sodium channel = type: cell-based, human or rat; settings: known cell line that expresses a sodium channel
CYP3A4 = target: T1, CYP3A4 (Homo sapiens, UniProt P08684); test: Cytochrome P450 (CYP450) inhibition assay, Vivid fluorescence, CYP3A4; type: in vitro ADME; settings: P450 Baculosomes (CYP3A4), probe Vivid substrate (fluorogenic, not named)
T1 construct: purchased Invitrogen Corporation Vivid CYP450 Screening Kit (catalogue number not given)
T1 sequence (P08684 whole entry): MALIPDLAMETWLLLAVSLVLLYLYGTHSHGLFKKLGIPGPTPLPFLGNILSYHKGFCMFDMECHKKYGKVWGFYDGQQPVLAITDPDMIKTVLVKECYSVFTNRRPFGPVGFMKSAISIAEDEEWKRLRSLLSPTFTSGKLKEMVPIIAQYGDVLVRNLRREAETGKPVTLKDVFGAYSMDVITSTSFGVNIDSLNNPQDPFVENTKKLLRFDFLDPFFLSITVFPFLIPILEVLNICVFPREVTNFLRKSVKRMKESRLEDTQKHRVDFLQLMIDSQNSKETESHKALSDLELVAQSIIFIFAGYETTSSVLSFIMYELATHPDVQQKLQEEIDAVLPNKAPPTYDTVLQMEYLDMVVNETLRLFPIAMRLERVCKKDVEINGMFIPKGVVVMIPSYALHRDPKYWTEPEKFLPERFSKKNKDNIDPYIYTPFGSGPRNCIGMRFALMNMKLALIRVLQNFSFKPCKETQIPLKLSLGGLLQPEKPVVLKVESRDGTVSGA

PC12 (Nav1.2) = PC12 (Nav1.2) (Rattus norvegicus, UniProt P04775)
SK-N-BE2C (NaV1.8) = SK-N-BE2C (NaV1.8) (Homo sapiens, UniProt Q9Y5Y9); type: cell-based
SK-N-BE2C (NaV1.8), sequence (Q9Y5Y9 whole entry, looked up): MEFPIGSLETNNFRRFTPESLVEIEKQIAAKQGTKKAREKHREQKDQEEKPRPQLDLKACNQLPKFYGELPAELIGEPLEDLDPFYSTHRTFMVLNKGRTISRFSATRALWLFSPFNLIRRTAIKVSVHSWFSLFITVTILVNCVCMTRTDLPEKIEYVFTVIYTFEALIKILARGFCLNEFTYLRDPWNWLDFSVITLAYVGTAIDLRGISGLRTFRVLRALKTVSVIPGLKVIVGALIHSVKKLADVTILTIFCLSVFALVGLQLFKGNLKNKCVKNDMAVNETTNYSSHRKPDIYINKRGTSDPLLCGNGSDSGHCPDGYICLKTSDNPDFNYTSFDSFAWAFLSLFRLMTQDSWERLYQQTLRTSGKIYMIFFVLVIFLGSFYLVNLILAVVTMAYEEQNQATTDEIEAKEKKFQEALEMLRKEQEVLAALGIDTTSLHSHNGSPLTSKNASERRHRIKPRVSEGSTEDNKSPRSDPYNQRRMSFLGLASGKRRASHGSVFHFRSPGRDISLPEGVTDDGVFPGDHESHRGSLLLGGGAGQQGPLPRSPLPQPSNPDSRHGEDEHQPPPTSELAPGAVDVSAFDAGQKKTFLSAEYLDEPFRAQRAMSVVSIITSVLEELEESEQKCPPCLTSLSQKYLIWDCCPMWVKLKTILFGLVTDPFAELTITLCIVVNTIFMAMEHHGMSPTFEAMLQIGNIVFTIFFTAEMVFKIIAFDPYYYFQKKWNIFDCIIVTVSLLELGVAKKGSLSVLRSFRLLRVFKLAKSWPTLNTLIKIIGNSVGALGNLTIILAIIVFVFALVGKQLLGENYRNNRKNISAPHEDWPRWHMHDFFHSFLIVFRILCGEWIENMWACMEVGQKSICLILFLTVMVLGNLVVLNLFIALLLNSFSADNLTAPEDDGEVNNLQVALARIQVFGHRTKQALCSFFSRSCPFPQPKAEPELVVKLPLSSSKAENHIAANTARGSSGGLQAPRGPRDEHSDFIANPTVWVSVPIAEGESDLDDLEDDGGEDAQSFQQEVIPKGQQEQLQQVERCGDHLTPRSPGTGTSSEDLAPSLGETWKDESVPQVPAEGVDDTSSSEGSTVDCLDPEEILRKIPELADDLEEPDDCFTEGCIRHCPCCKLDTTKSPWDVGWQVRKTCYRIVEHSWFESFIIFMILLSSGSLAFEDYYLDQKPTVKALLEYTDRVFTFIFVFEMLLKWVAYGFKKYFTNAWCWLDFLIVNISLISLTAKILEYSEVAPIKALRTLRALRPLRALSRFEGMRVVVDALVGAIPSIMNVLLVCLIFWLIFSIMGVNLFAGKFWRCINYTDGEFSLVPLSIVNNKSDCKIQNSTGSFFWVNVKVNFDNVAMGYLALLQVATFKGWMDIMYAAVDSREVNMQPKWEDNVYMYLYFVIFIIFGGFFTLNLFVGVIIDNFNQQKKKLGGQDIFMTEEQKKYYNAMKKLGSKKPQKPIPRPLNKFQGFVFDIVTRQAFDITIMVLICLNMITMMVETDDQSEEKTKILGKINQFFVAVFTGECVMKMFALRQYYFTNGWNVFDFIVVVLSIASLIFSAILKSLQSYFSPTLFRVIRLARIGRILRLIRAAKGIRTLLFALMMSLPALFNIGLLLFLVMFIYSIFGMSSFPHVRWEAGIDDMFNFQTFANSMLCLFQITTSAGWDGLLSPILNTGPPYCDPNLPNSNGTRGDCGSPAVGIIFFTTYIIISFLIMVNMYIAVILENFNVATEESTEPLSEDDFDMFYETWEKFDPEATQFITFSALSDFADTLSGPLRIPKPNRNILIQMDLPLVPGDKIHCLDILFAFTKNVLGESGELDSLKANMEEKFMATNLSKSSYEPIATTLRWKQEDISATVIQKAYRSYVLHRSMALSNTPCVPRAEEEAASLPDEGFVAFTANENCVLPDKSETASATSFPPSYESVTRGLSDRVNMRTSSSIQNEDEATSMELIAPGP

L6 (Nav1.4 and 1.5) = type: cell-based, rat
CHO-K1 (NaV1.4) = type: cell-based, Chinese Hamster
CHO-K1 (NaV1.4), sequence (A0A9J7H6F9 1-1930): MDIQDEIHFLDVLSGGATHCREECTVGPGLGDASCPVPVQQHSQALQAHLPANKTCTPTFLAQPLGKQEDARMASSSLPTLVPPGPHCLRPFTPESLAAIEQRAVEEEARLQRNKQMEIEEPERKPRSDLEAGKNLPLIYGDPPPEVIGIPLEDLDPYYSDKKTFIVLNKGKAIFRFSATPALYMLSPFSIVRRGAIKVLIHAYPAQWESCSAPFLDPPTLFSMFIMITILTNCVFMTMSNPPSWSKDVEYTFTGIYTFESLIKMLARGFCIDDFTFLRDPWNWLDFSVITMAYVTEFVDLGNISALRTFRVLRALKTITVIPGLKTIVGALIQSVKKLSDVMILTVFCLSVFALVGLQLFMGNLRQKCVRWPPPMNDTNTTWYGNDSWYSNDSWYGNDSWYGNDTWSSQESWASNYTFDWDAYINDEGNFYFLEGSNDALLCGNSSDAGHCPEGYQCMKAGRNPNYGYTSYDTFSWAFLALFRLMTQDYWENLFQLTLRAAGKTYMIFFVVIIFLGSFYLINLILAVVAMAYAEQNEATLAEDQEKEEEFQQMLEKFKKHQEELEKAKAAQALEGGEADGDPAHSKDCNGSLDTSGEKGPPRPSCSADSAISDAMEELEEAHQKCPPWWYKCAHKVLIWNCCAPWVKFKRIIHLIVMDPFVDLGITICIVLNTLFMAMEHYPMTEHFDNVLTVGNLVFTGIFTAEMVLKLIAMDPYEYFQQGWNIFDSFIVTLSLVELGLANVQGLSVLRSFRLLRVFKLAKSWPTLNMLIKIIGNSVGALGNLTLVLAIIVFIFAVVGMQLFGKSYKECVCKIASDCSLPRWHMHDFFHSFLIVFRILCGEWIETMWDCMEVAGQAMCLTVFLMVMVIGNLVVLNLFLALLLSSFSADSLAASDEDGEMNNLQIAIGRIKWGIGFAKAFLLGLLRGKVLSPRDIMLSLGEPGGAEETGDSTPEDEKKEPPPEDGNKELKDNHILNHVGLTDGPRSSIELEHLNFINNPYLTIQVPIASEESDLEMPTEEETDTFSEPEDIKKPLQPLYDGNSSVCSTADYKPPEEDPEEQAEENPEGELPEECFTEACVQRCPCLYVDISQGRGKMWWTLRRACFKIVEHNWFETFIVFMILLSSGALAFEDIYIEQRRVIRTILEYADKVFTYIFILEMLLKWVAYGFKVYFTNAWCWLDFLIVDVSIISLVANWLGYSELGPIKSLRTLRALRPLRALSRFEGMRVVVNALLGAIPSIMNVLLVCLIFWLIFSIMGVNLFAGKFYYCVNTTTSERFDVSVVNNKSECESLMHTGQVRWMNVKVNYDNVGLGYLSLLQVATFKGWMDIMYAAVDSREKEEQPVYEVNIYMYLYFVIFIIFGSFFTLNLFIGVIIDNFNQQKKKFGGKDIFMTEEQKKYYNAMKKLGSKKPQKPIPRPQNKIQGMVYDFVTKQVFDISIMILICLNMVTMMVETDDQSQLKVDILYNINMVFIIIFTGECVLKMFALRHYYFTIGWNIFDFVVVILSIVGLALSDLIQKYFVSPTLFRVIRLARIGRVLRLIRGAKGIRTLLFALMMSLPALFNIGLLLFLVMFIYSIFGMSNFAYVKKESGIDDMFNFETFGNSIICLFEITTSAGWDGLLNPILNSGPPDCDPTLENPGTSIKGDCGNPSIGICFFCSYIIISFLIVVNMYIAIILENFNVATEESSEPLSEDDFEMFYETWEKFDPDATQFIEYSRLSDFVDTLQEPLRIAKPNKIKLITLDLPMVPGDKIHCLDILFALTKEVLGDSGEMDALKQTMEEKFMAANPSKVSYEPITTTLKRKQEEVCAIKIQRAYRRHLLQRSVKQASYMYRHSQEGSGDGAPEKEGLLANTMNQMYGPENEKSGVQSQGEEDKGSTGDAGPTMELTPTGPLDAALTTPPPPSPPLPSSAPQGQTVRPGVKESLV

[1] = test system: SH-SY5Y (NaV1.9 and NaV1.7); type: cell-based, Human
CYP2C19 = CYP2C19 (Homo sapiens, UniProt P33261); test: in vitro
Excerpt: as §1, §2, §3, §4

CYP2C9, sequence (P11712 whole entry, canonical isoform): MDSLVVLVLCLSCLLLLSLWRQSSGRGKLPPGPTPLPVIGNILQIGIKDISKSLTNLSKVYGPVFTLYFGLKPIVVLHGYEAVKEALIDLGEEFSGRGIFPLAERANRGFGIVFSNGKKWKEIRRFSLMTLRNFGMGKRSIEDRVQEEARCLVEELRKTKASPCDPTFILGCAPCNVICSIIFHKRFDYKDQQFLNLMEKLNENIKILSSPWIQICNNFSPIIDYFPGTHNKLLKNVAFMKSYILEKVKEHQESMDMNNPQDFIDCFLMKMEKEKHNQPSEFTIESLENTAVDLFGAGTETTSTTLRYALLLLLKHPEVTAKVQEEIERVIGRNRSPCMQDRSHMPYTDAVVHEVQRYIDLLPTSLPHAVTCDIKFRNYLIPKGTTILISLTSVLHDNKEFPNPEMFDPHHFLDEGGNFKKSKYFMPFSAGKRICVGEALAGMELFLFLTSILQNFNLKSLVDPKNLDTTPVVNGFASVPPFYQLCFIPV

SMILES	IC50 (sodium channel) [nM]	melting point [°C]	inhibition at 10 µM (CYP3A4) [%]	other results
Nc1ccc(S(=O)(=O)Nc2ccnn2-c2ccccc2)cc1 [Sulfaphenazole]	–	–	–	inhibition at 0.42 µM (CYP2C9): 50%
C=C[C@H]1C[N@@]2CC[C@H]1C[C@@H]2[C@@H](O)c1ccnc2ccc(OC)cc12 [Quinidine]	–	–	–	inhibition at 0.0137 µM (CYP2D6): 55%
COc1ccc2c(n1)C1(CO2)C(=O)N(Cc2ccc3c(c2)OCCO3)c2ccccc21 (stereo not drawn) [Example 3, 1′-(2,3-dihydro-1,4-benzodioxin-6-ylmethyl)-5-methoxyspiro[furo[3,2-b]pyridine-3,3′-indol]-2′(1′H)-one]	1 to 100	144 to 146	–	–
COc1ccc2c(n1)C1(CO2)C(=O)N(Cc2ncccc2C(F)(F)F)c2ccccc21 (stereo not drawn) [Example 13, 5-methoxy-1′-{[3-(trifluoromethyl)pyridin-2-yl]methyl}spiro[furo[3,2-b]pyridine-3,3′-indol]-2′(1′H)-one]	100 to 1000	195 to 198	< 50	–
COc1ccc2c(n1)C1(CO2)C(=O)N(C[C@H]2CCCO2)c2cccc(Br)c21 (stereo partly drawn) [Example 1, 4′-bromo-5-methoxy-1′-[(2R)-tetrahydrofuran-2-ylmethyl]spiro[furo[3,2-b]pyridine-3,3′-indol]-2′(1′H)-one]	100 to 1000	110 to 112	< 50	–
O=C1Nc2ncccc2C12COc1cc3c(cc12)OCCO3 (stereo not drawn) [Example 6, 2,3-dihydrospiro[furo[2,3-g][1,4]benzodioxine-8,3′-pyrrolo[2,3-b]pyridin]-2′(1′H)-one]	100 to 1000	> 250	< 50	–
NC1=N[C@H](O)[C@H]2[C@H]3O[C@]4(O)O[C@@H]([C@@H](O)[C@@]2(N1)[C@@H]4O)[C@]3(O)CO [TTX, tetrodotoxin]	–	–	–	block of the increase in [14C] guanidine influx (PC12 (Nav1.2)): guanidine influx was completely; block of the increase in [14C] guanidine influx (SK-N-BE2C (NaV1.8)): TTX partially blocked influx; block of the increase in [14C] guanidine influx (L6 (Nav1.4 and 1.5)): partially blocked by TTX at 100; block of the increase in [14C] guanidine influx (CHO-K1 (NaV1.4)): completely blocked using TTX.; block of the increase in [14C] guanidine influx [1]: background was partially blocked
CC(=O)N1CCN(c2ccc(OCC3COC(Cn4ccnc4)(c4ccc(Cl)cc4Cl)O3)cc2)CC1 (stereo not drawn) [Ketoconazole]	–	–	–	inhibition at 7.62 µM (CYP2C19): 65%
O=C1Nc2cccnc2C12COc1cc3c(cc12)OCCO3 (stereo not drawn) [Example 10, 2,3-dihydrospiro[furo[2,3-g][1,4]benzodioxine-8,3′-pyrrolo[3,2-b]pyridin]-2′(1′H)-one]	1000 to 10000	> 250	< 50	–
O=C1N(C[C@H]2CCCO2)c2ccccc2C12COc1c[nH]c(=O)cc12 (stereo partly drawn) [Example 4, 1′-[(2R)-tetrahydrofuran-2-ylmethyl]spiro[furo[2,3-c]pyridine-3,3′-indole]-2′,5(1′H,6H)-dione]	1000 to 10000	> 250	< 50	–
COc1ccc2c(n1)C1(CO2)C(=O)N(C[C@H]2CCCO2)c2ccccc21 (stereo partly drawn) [Example 2, 5-methoxy-1′-[(2R)-tetrahydrofuran-2-ylmethyl]spiro[furo[3,2-b]pyridine-3,3′-indol]-2′(1′H)-one]	–	52 to 56	–	–
O=C1N(Cc2ncccc2C(F)(F)F)c2ncccc2C12COc1cc3c(cc12)OCCO3 (stereo not drawn) [Example 8, 1′-{[3-(trifluoromethyl)pyridin-2-yl]methyl}-2,3-dihydrospiro[furo[2,3-g][1,4]benzodioxine-8,3′-pyrrolo[2,3-b]pyridin]-2′(1′H)-one]	100 to 1000	–	< 50	–
O=C1N(Cc2ccccn2)c2ncccc2C12COc1cc3c(cc12)OCCO3 (stereo not drawn) [Example 7, 1′-(pyridin-2-ylmethyl)-2,3-dihydrospiro[furo[2,3-g][1,4]benzodioxine-8,3′-pyrrolo[2,3-b]pyridin]-2′(1′H)-one]	1 to 100	–	< 50	–
O=C1N(Cc2ccccn2)c2cccnc2C12COc1cc3c(cc12)OCCO3 (stereo not drawn) [Example 11, 1′-(pyridin-2-ylmethyl)-2,3-dihydrospiro[furo[2,3-g][1,4]benzodioxine-8,3′-pyrrolo[3,2-b]pyridin]-2′(1′H)-one]	100 to 1000	146 to 147	< 50	–
O=C1N(Cc2ncccc2C(F)(F)F)c2cccnc2C12COc1cc3c(cc12)OCCO3 (stereo not drawn) [Example 12, 1′-{[3-(trifluoromethyl)pyridin-2-yl]methyl}-2,3-dihydrospiro[furo[2,3-g][1,4]benzodioxine-8,3′-pyrrolo[3,2-b]pyridin]-2′(1′H)-one]	100 to 1000	> 250	< 50	–
